Test: pKa values of the azo dyes
Assay type: physicochemical
Conditions: azo dye
Method: Thus, in the hair dye composition of the present invention having pH (25° C.) of 7.5 to 12, almost 80% or more of these azo dyes are present in an anionic state where a proton(s) is dissociated.

Row | pKa | SMILES
1 | 7.5 | Cn1nccc1/N=N/c1ccc(O)c(Cl)c1 [Example A-3]
2 | 6 | CSc1nsc(/N=N/c2ccc(O)c(Cl)c2)n1 [Example A-1]
3 | 6 | NS(=O)(=O)c1ccc2nsc(/N=N/c3ccc(O)c(Cl)c3)c2c1 [Example A-2]
